# Measured values: patent US8530513B1, “Pharmaceutical uses of diterpene excavatolide B from a coral or an analogue thereof” (National Sun Yat-Sen University, priority 2012, dated 2013)
# What was measured:
# COX-2 = assay: TPA-induced COX-2 expression in mouse skin, immunohistochemical staining; type: in vivo; settings: topical for 6 h after TPA, anti-COX-2 immunostaining
# Akt = assay: TPA-stimulated Akt phosphorylation in mouse skin, western blot; type: in vivo; settings: topical for 2 h after TPA
# Method: Shaven abdominal skins of female C57BL/6JNarl mice were not treated or topically treated with vehicle (acetone, 200 μl/site) or TPA (10 nmol in 200 μl acetone/site) at indicated time points or treated first with TPA for 10 min, then with the indicated concentrations of BrD1 at the indicated time points. Abdominal skin samples were collected, homogenated and lysed to prepare total proteins. Protein samples were subsequently resolved by SDS-PAGE using a gradient gel. The resolved proteins were transferred to a PVDF Immobilon-P membrane (Millipore, Bedford, Calif.), and the membrane was blocked with 5% non-fat dry milk in PBST buffer (phosphate-buffered saline (PBS) containing 0.1% Tween 20) for 60 minutes at room temperature. The membranes were incubated overnight at 4° C. with commercially available antibodies (1:1000 dilutions). Loading of equal amounts of protein was assessed using mouse β-actin. The blots were rinsed three times with PBST buffer for 5 minutes. Washed blots were incubated with HRP-conjugated secondary antibody (1:100,000 dilution), then washed again three times with PBST buffer. […] Quantification of bands was performed using Image J software.
# We therefore evaluated whether BrD1 could interfere with TPA-induced activation of Akt and Erk in inflamed skin. […] We thus determined the phosphorylation level of Akt, Erk, NF-κB and IκBα in skins subjected to different treatments. […]
# [1] = tested on: abdominal skins of female C57BL/6 mice; assay: TPA-induced vascular permeability assay (Evans blue extravasation); type: in vivo, mouse; settings: Evans blue OD 620 nm
# Method: TPA-induced vascular permeability assay was modified and performed as previously described (Thurston G, Suri C, Smith K, McClain J, Sato T N, Yancopoulos G D, McDonald D M. Science 1999, 286:2511-2514). Shaved abdominal skins of female C57BL/6JNarl mice were topically treated with vehicle (acetone, 200 μl/site) or TPA (10 nmol in 200 μl acetone/site) for 6 h or treated with TPA for 10 min and subsequently treated for 6 h with the indicated concentrations of BrD1. Abdominal skins of untreated mice were used as the control group. One percent Evans blue dye (100 μl) was injected into mouse tail veins. After 20 min, anatomical appearances of mouse abdomens from the various treatments were photographically recorded. Abdominal skins representative of each test group were removed, turned over and photographed. Evans blue dye extravasated into the skins was extracted by incubation of the skin samples in 99% N,N-dimethyl-formamide overnight at 60° C. and optical density was measured at 620 nm.
# Acute inflammatory reactions are known to include changes in vascular permeability, edema and cellular infiltration (Rao T S, Currie J L, Shaffer A F, Isakson P C. Inflammation 1993, 17:723-741). In order to evaluate the anti-inflammatory effect of BrD1 on TPA-induced dermatitis in a murine model, we initially evaluated the possible inhibitory effect of BrD1 on TPA-induced vascular permeability. […]
# iNOS = assay: TPA-induced iNOS expression in mouse skin, immunohistochemical staining; type: in vivo; settings: topical for 6 h after TPA, anti-iNOS immunostaining
# Method: Mice were treated or not treated topically on their shaven abdomens with acetone (vehicle only) or TPA (10 nmol in 200 μl acetone/site) for 6 h or treated first with TPA for 10 min, then with the indicated concentrations of BrD1 for 6 h. Mice were killed by cervical dislocation. Abdominal skin tissues were collected, fixed with formalin buffer and embedded in paraffin. Tissue sections ([…]) were cut and laid onto silanized glass slides and deparaffinized three times with xylene for 5 min each prior to rehydration using a graded alcohol bath. For hematoxyline and eosin staining, the sections were stained with hematoxyline and eosin staining. For immunohistochemical staining, the deparaffinized sections were boiled in 10 mM citrate buffer (pH 6.0) for 10 min for antigen retrieval and rinsed with PBS containing 0.05% Tween-20 buffer for 5 min. The sections were treated with 3% hydrogen peroxide in methanol for 15 min to decrease non-specific binding. They were subsequently washed with blocking solution (PBS containing 1% BSA) for 30 min and then PBST twice for 5 min. All slides were incubated first with 2% goat serum in blocking solution for 30 min, then with a 1:200 dilution of polyclonal iNOS antibody (eBioscience, San Diego, Calif.) at room temperature for 1 h. […] Subsequently, peroxidase-binding sites were determined by staining with 3,3′-diaminobenzidine tetrahydrochloride (Dako). […]
smiles,measurement,setting,value
"CCCC(=O)O[C@H]1C/C(C)=C\[C@@H]2OC(=O)[C@]3(C)O[C@]23[C@@H](OC(C)=O)[C@H]2[C@@H](C)[C@@H](O)C[C@H](OC(C)=O)[C@]2(C)[C@H]1OC(C)=O [BrD1, excavatolide B]",TPA-induced COX-2 expression,COX-2,reduced the TPA-induced COX-2 expression in the epidermis
same,TPA-induced COX-2 expression,COX-2; listed as excavatolide B,reduces the TPA-induced COX-2 expression in the epidermis
same,TPA-stimulated phosphorylation of Akt,Akt,significantly inhibited the TPA-stimulated phosphorylation of Akt
same,TPA-stimulated phosphorylation of Akt,Akt; listed as excavatolide B,significantly inhibits the TPA-stimulated phosphorylation of Akt
same,level of inhibition of TPA-induced vascular permeability,[1]; 0.5 mg/site topical for 6 h after TPA (10 nmol) 10 min,approximately 58%
same,level of inhibition of TPA-induced vascular permeability,[1]; 1 mg/site topical for 6 h after TPA (10 nmol) 10 min,~77%
same,TPA-induced iNOS expression,iNOS,markedly reduced the TPA-induced iNOS expression in the epidermal and dermal layers
same,TPA-induced iNOS expression,iNOS; listed as excavatolide B,markedly reduces the TPA-induced iNOS expression in the epidermal and dermal layers
